Laboratory results taken from patent publication US20230303513A1, “OXOPYRROLIDINE UREA FPR2 AGONISTS” (BRISTOL-MYERS SQUIBB COMPANY, priority 2020, published 2023).

Legend:
human FPR2 = human FPR2 (Homo sapiens (Human), UniProt P25090); test: FPR2 cyclic adenosine monophosphate (cAMP) assay; assay type: cell-based; details: CHO cells overexpressing human FPR2; forskolin 5 μM, IBMX 200 μM; inhibition of cAMP production, HTRF; read-out: hFPR2 cAMP2 EC50
Text: (§1) N-formyl peptide receptors (FPRs) are a family of chemo attractant receptors that facilitate leukocyte response during inflammation. FPRs belong to the seven-transmembrane G protein-coupled receptor superfamily and are linked to inhibitory G-proteins (Gi). Three family members (FPR1, FPR2 and FPR3) have been identified in humans and are predominantly found in myeloid cells with varied distribution and have also been reported in multiple organs and tissues. After agonist binding, the FPRs activate a multitude of physiological pathways, such as intra cellular signaling transduction, Ca^21 mobilization and transcription. The family interacts with a diverse set of ligands that includes proteins, polypeptides and fatty acid metabolites which activate both pro-inflammatory and pro-resolution downstream responses. FPR2 and FPR1 Cyclic Adenosine Monophosphate (cAMP) Assays were used to measure the activity of the compounds in this patent.
(§2) FPR2 and FPR1 Cyclic Adenosine Monophosphate (cAMP) Assays. A mixture of forskolin (5 μM final for FPR2 or 10 μM final for FPR1) and IBMX (200 μM final) were added to 384-well Proxiplates (Perkin-Elmer) pre-dotted with test compounds in DMSO (1% final) at final concentrations in the range of 0.020 nM to 100 μM. Chinese Hamster Ovary cells (CHO) overexpressing human FPR1 or human FPR2 receptors were cultured in F-12 (Ham's) medium supplemented with 10% qualified FBS, 250 μg/ml zeocin and 300 μg/ml hygromycin (Life Technologies). Reactions were initiated by adding 2,000 human FPR2 cells per well or 4,000 human FPR1 cells per well in Dulbecco's PBS (with calcium and magnesium) (Life Technologies) supplemented with 0.1% BSA (Perkin-Elmer). The reaction mixtures were incubated for 30 min at room temperature. The level of intracellular cAMP was determined using the HTRF HiRange cAMP assay reagent kit (Cisbio) according to manufacturer's instruction. Solutions of cryptate conjugated anti-cAMP and d2 flurorophore-labelled cAMP were made in a supplied lysis buffer separately. Upon completion of the reaction, the cells were lysed with equal volume of the d2-cAMP solution and anti-cAMP solution. After a 1-h room temperature incubation, time-resolved fluorescence intensity was measured using the Envision (Perkin-Elmer) at 400 nm excitation and dual emission at 590 nm and 665 nm. A calibration curve was constructed with an external cAMP standard at concentrations ranging from 1 μM to 0.1 μM by plotting the fluorescent intensity ratio from 665 nm emission to the intensity from the 590 nm emission against cAMP concentrations. The potency and activity of a compound to inhibit cAMP production was then determined by fitting to a 4-parametric logistic equation from a plot of cAMP level versus compound concentrations.

human FPR1 = human FPR1 (Homo sapiens (Human), UniProt P21462); test: FPR1 cyclic adenosine monophosphate (cAMP) assay; assay type: cell-based; details: CHO cells overexpressing human FPR1; forskolin 10 μM, IBMX 200 μM; inhibition of cAMP production, HTRF; read-out: hFPR1 cAMP EC50
Text: as §1, §2

human FPR1, sequence (P21462 whole entry): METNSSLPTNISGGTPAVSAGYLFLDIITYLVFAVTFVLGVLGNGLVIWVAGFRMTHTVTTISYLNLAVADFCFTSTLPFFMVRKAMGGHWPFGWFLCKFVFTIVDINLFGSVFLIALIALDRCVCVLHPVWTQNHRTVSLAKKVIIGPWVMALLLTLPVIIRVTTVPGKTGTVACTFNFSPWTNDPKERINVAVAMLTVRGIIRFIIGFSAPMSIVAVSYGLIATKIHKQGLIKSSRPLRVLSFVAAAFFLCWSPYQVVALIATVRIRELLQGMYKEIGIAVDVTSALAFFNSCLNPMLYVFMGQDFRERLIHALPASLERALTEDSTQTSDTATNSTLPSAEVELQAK
human FPR2, sequence (P25090 whole entry): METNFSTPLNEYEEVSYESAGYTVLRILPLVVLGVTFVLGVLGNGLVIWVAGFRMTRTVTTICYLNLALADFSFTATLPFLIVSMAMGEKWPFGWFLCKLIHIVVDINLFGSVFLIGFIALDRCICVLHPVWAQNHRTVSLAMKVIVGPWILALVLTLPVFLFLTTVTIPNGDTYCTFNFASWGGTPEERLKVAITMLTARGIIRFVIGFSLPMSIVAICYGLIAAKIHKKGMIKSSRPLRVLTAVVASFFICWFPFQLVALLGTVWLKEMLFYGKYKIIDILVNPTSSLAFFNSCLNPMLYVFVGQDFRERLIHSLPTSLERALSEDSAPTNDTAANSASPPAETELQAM

EC50 (human FPR2) [nM] | EC50 (human FPR1) [nM] | Compound
9 | > 10000 | COc1cc(F)c([C@@H]2CN(c3nccc(NC4CCOC4)c3C(F)(F)F)C(=O)[C@H]2NC(=O)N[C@H]2CC[C@H](C(F)F)CC2)c(F)c1 (single isomer, unassigned) [Example 100]
7.7 | 780 | COc1cc(F)c([C@@H]2CN(c3nccc(N4CCC(C)(O)C4)c3C(F)(F)F)C(=O)[C@H]2NC(=O)N[C@H]2CC[C@H](C(F)F)CC2)c(F)c1 (single isomer, unassigned) [Example 91]
4.6 | 3400 | COc1cc(F)c([C@@H]2CN(c3nccc(N4C[C@@H]5C[C@H]4CN5C)c3C(F)(F)F)C(=O)[C@H]2NC(=O)N[C@H]2CC[C@H](C(F)F)CC2)c(F)c1 (single isomer, unassigned) [Example 96]
1.5 | 0.4 | COc1cc(F)c([C@@H]2CN(c3cccn(CCO)c3=O)C(=O)[C@H]2NC(=O)NC2CCc3cc(OC)ccc3C2)c(F)c1 (some centres unmarked) [Example 21]
7.1 | 4.3 | COc1cc(F)c([C@H]2[C@H](NC(=O)NC3CCc4cc(OC)ccc4C3)C(=O)N(c3cccn(CCO)c3=O)[C@H]2C)c(F)c1 (single isomer, unassigned) [Example 89]
4.5 | 11 | CCn1cccc(N2C[C@@H](c3c(F)cc(OC)cc3F)[C@H](NC(=O)NC3CCc4cc(OC)ccc4C3)C2=O)c1=O (some centres unmarked) [Example 37]
14.8 | 6800 | COc1cc(F)c([C@@H]2CN(c3nccc(N4CCOCC4)c3C(F)(F)F)C(=O)C2NC(=O)N[C@H]2CC[C@H](C(F)F)CC2)c(F)c1 (stereo partly drawn) [Example 1, 1-((3S,4R)-4-(2,6-Difluoro-4-methoxyphenyl)-1-(4-morpholino-3-(trifluoromethyl)pyridin-2-yl)-2-oxopyrrolidin-3-yl)-3-((1r,4S)-4-(difluoromethyl)cyclohexyl) urea]
2.9 | 2.5 | COCCn1cccc(N2C(=O)[C@@H](NC(=O)NC3CCc4cc(Cl)ccc4C3)[C@H](c3c(F)cc(OC)cc3F)[C@@H]2C)c1=O (some centres unmarked) [Example 27]
3.6 | 2500 | COc1cc(F)c([C@@H]2CN(c3nccc(N4CCN(C)CC4)c3C(F)(F)F)C(=O)[C@H]2NC(=O)N[C@H]2CC[C@H](C(F)F)CC2)c(F)c1 [Example 30]
21 | > 1000 | CNC(=O)C(C)Nc1ccnc(N2C[C@@H](c3c(F)cc(OC)cc3F)[C@H](NC(=O)N[C@H]3CC[C@H](C(F)F)CC3)C2=O)c1C(F)(F)F (single isomer, unassigned) [Example 75]
1.3 | – | CCn1cccc(N2C[C@@H](c3ccc(OC)cc3)[C@H](NC(=O)NC3CCc4cc(OC)ccc4C3)C2=O)c1=O (some centres unmarked) [Example 13]
4.5 | 62 | COc1ccc([C@H]2C[C@@H]2NC(=O)N[C@@H]2C(=O)N(c3ncccc3C(F)(F)F)C[C@H]2c2c(F)cc(OC)cc2F)cc1 [Example 35]
1.7 | 0.6 | COCCn1cccc(N2C[C@@H](c3c(F)cc(OC)cc3F)[C@H](NC(=O)NC3CCc4cc(Cl)ccc4C3)C2=O)c1=O (some centres unmarked) [Example 17]
2.7 | 2.1 | COCCn1ccc(C)c(N2C[C@@H](c3c(F)cc(OC)cc3F)[C@H](NC(=O)NC3CCc4cc(Cl)ccc4C3)C2=O)c1=O (some centres unmarked) [Example 22]
7.9 | 1000 | COc1cc(F)c([C@@H]2CN(c3nccc(N4CCN5CCCC5C4)c3C(F)(F)F)C(=O)[C@H]2NC(=O)N[C@H]2CC[C@H](C(F)F)CC2)c(F)c1 (single isomer, unassigned) [Example 102]
2.8 | – | COCCn1cccc(N2C(=O)[C@@H](NC(=O)NC3CCc4cc(OC)ccc4C3)[C@H](c3c(F)cc(OC)cc3F)[C@@H]2C)c1=O (some centres unmarked) [Example 26]
3.2 | 4.8 | CCn1nccc(N2C[C@@H](c3c(F)cc(OC)cc3F)[C@H](NC(=O)NC3CCc4cc(OC)ccc4C3)C2=O)c1=O (single isomer, unassigned) [Example 87]
3.3 | 3 | COc1cc(F)c([C@@H]2CN(c3ncccc3C(F)(F)F)C(=O)[C@H]2NC(=O)NC2COc3cc(OC)ccc3C2)c(F)c1 (some centres unmarked) [Example 28]
24 | 0.5 | COCCn1cccc(N2C[C@@H](c3ccc(Cl)cc3)[C@H](NC(=O)NC3CCc4cc(OC)ccc4C3)C2=O)c1=O (some centres unmarked) [Example 55]

EC50 (human FPR2) [nM] | EC50 (human FPR1) [nM] | Compound
17 | 2100 | COc1cc(F)c([C@@H]2CN(c3nccc(N4CCN5CCCC5C4)c3C(F)(F)F)C(=O)[C@H]2NC(=O)N[C@H]2CC[C@H](C(F)F)CC2)c(F)c1 (single isomer, unassigned) [Example 103]
12 | 1.2 | COCCn1ccc(OC)c(N2C[C@@H](c3c(F)cc(OC)cc3F)[C@H](NC(=O)NC3CCc4cc(OC)ccc4C3)C2=O)c1=O (some centres unmarked) [Example 50]
7.4 | 600 | COc1cc(F)c([C@H]2[C@H](NC(=O)N[C@H]3CC[C@H](C(F)F)CC3)C(=O)N(c3ncccc3OC)[C@H]2C)c(F)c1 [Example 48]
4.4 | 7.6 | COCCn1nccc(N2C[C@@H](c3c(F)cc(OC)cc3F)[C@H](NC(=O)NC3CCc4cc(OC)ccc4C3)C2=O)c1=O (some centres unmarked) [Example 85]
7.1 | 1.5 | COc1cc(F)c([C@@H]2CN(c3ncccc3C(F)(F)F)C(=O)[C@H]2NC(=O)NC2CCc3cc(OC)ccc3C2)c(F)c1 (some centres unmarked) [Example 46]
15 | – | COc1cc(F)c([C@@H]2CN(c3cccn(CC(O)C(F)(F)F)c3=O)C(=O)[C@H]2NC(=O)NC2CCc3cc(OC)ccc3C2)c(F)c1 (single isomer, unassigned) [Example 77]
2.8 | 1630 | COc1cc(F)c([C@@H]2CN(c3nccc(N4C[C@@H](C)N(C)[C@@H](C)C4)c3C(F)(F)F)C(=O)[C@H]2NC(=O)N[C@H]2CC[C@H](C(F)F)CC2)c(F)c1 [Example 25]
5.8 | 1.7 | COCCn1cccc(N2C[C@@H](c3ccc(OC)cc3)[C@H](NC(=O)NC3CCc4cc(OC)ccc4C3)C2=O)c1=O (some centres unmarked) [Example 42]
2.6 | 38.9 | COCCn1cccc(N2C[C@@H](c3c(F)cc(OC)cc3F)[C@H](NC(=O)NC3CCc4cc(Cl)ccc4C3)C2=O)c1=O (some centres unmarked) [Example 20]
25 | > 1000 | CNC(=O)CNc1ccnc(N2C[C@@H](c3c(F)cc(OC)cc3F)[C@H](NC(=O)N[C@H]3CC[C@H](C(F)F)CC3)C2=O)c1C(F)(F)F [Example 72]
0.8 | 0.1 | COCCn1cccc(N2C[C@@H](c3ccc(OC)cc3)[C@H](NC(=O)NC3CCc4cc(OC)ccc4C3)C2=O)c1=O (some centres unmarked) [Example 11]
50 | 100 | COc1cc(F)c([C@@H]2CN(c3cccn(CC(O)C(F)(F)F)c3=O)C(=O)[C@H]2NC(=O)NC2CCc3cc(OC)ccc3C2)c(F)c1 (single isomer, unassigned) [Example 78]
1.9 | 30.1 | COc1cc(F)c([C@@H]2CN(c3cccn(CCO)c3=O)C(=O)[C@H]2NC(=O)NC2CCc3cc(Cl)ccc3C2)c(F)c1 (some centres unmarked) [Example 19]
55 | 5000 | COc1cc(F)c([C@@H]2CN(c3cccn(CCO)c3=O)C(=O)[C@H]2NC(=O)N[C@H]2CC[C@H](C(F)F)CC2)c(F)c1 [Example 65]
53 | 54 | COc1cc(F)c([C@@H]2CN(c3ncccc3C(F)(F)F)C(=O)[C@H]2NC(=O)NC2CCc3cc(OC)ccc3C2)c(F)c1 (some centres unmarked) [Example 64]
29 | 470 | COc1cc(F)c([C@H]2[C@H](NC(=O)NC3CCc4cc(OC)ccc4C3(C)C)C(=O)N(c3ncccc3C(F)(F)F)[C@H]2C)c(F)c1 (some centres unmarked) [Example 59]
7.3 | – | COc1cc(F)c([C@@H]2CN(c3cccn(CC(O)C(F)(F)F)c3=O)C(=O)[C@H]2NC(=O)NC2CCc3cc(OC)ccc3C2)c(F)c1 (some centres unmarked) [Example 79]
0.2 | – | COCCn1cccc(N2C[C@@H](c3ccc(OC)cc3)[C@H](NC(=O)NC3CCc4cc(Cl)ccc4C3)C2=O)c1=O (some centres unmarked) [Example 5]

Compound | EC50 (human FPR2) [nM] | EC50 (human FPR1) [nM]
COCCn1cccc(N2C(=O)[C@@H](NC(=O)NC3CCc4cc(OC)ccc4C3(C)C)[C@H](c3c(F)cc(OC)cc3F)[C@@H]2C)c1=O (some centres unmarked) [Example 40] | 5.3 | 200
